In brackets after ≈: the same amount, converted by molar mass.
Tested on: M. catarrhalis A894
Assay: MIC determination by microdilution in cation-adjusted Mueller-Hinton Broth (NCCLS)
Type: cell-based
Settings: pH of the test medium 7.2-7.3; for MIC M. catarrhalis A894: microdilution method; for MIC: Moraxella catarrhalis, A894, microdilution method
Method: These assays have been performed following the description given in “Methods for dilution Antimicrobial Susceptibility Tests for Bacteria that Grow Aerobically, 4th ed.; Approved standard: NCCLS Document M7-A4; National Committee for Clinical Laboratory Standards: Villanova, Pa., USA, 1997”. Minimal inhibitory concentrations (MICs; mg/l) were determined in cation-adjusted Mueller-Hinton Broth by a microdilution method following NCCLS guidelines (National Committee for Clinical Laboratory Standards. Methods for Dilution Antimicrobial Susceptibility). The pH of the test medium was 7.2-7.3. All Example compounds were tested against several Gram positive and Gram negative bacteria such as S. aureus, E. faecalis, S. pneumoniae, M. catarrhalis or E.coli.

Row | Compound | MIC M. catarrhalis A894 | MIC [mg/L]
1 | COc1ccc2ncc3c(c2n1)C(CN1CCC[C@@H](CNCc2ccc4c(n2)NC(=O)CO4)C1)CO3 (mixture of isomers) [Example 27] | ≦0.031 mg/l | 
2 | COc1ccc2ncc3c(c2n1)C(CN1CCC[C@@H](CNCc2cc4c(cn2)OCCO4)C1)CO3 (mixture of isomers) [Example 29] | ≦0.031 mg/l | 
3 | COc1ccc2ncc3c(c2n1)C(CN1CCC[C@@H](CNC/C=C/c2cc(F)ccc2F)C1)CO3 (mixture of isomers) [Example 30] | ≦0.031 mg/l | 
4 | COc1ccc2ncc3c(c2n1)C(CN1CC[C@@H](NCc2ccc4c(n2)NC(=O)CS4)[C@@H](F)C1)CO3 (relative stereo) [Example 17, 6-{[(3S*,4R*)-3-fluoro-1-((1RS)-8-methoxy-1,2-dihydro-3-oxa-5,9-diaza-cyclopenta[a]naphthalen-1-ylmethyl)-piperidin-4-ylamino]-methyl}-4H-pyrido[3,2-b][1,4]thiazin-3-one] |  | ≤ 0.031
5 | COc1ccc2ncc3c(c2n1)C(CN1CC[C@@H](NCc2ccc4c(n2)NC(=O)CO4)[C@@H](F)C1)CO3 (relative stereo) [Example 18, 6-{[(3S*,4R*)-3-fluoro-1-((1RS)-8-methoxy-1,2-dihydro-3-oxa-5,9-diaza-cyclopenta[a]naphthalen-1-ylmethyl)-piperidin-4-ylamino]-methyl}-4H-pyrido[3,2-b][1,4]oxazin-3-one] |  | ≤ 0.031
6 | COc1ccc2ncc3c(c2n1)C(CN1CC[C@@H](NCc2cc4c(cn2)OCCO4)[C@@H](F)C1)CO3 (relative stereo) [Example 19, (2,3-dihydro-[1,4]dioxino[2,3-c]pyridin-7-ylmethyl)-[(3S*,4R*)-3-fluoro-1-((1RS)-8-methoxy-1,2-dihydro-3-oxa-5,9-diaza-cyclopenta[a]naphthalen-1-ylmethyl) -piperidin-4-yl]-amine] |  | ≤ 0.031
7 | COc1ccc2ncc3c(c2n1)[C@H](CN1CCC(NCc2ccc4c(n2)NC(=O)CS4)CC1)CO3 (single isomer, unassigned) [Example 16A] |  | ≤ 0.031
8 | COc1ccc2ncc3c(c2n1)[C@@H](CN1CCC(NCc2ccc4c(n2)NC(=O)CS4)CC1)CO3 (single isomer, unassigned) [Example 16B] |  | ≤ 0.031

The remaining lines, values ahead:

Row | MIC M. catarrhalis A894 | MIC [mg/L] | Compound
9 | ≦0.031 mg/l |  | COc1ccc2ncc3c(c2n1)C(CN1CC2C(C1)C2NCc1ccc2c(n1)NC(=O)CO2)CO3 (racemic) [Example 32, 6-{[(1α,5α,6α)-3-((1RS)-8-methoxy-1,2-dihydro-3-oxa-5,9-diaza-cyclopenta[a]naphthalen-1-ylmethyl)-3-aza-bicyclo[3.1.0]hex-6-ylamino]-methyl}-4H-pyrido[3,2-b][1,4]oxazin-3-one]
10 | ≦0.031 mg/l |  | COc1ccc2ncc3c(c2n1)C(CN1CC2C(C1)C2NCc1cc2c(cn1)OCCO2)CO3 (racemic) [Example 33, (2,3-dihydro-[1,4]dioxino[2,3-c]pyridin-7-ylmethyl)-[(1α,5α,6α)-3-((1RS)-8-methoxy-1,2-dihydro-3-oxa-5,9-diaza-cyclopenta[a]naphthalen-1-ylmethyl)-3-aza-bicyclo[3.1.0]hex-6-yl]amine]
11 | ≦0.031 mg/l |  | COc1ccc2ncc3c(c2n1)C(CN1CC2C(C1)C2NCc1ccc2c(n1)NC(=O)CS2)CO3 (racemic) [Example 34, 6-{[(1α,5α,6α)-3-((1RS)-8-methoxy-1,2-dihydro-3-oxa-5,9-diaza-cyclopenta[a]naphthalen-1-ylmethyl)-3-aza-bicyclo[3.1.0]hex-6-ylamino]-methyl}-4H-pyrido[3,2-b][1,4]thiazin-3-one]
12 |  | ≤ 0.031 | O=C1COc2ccc(CNC3CCN(CC4COc5cnc6ccc(F)cc6c54)CC3)nc2N1 (racemic) [Example 35, rac-6-{[1-(8-fluoro-1,2-dihydro-furo[2,3-c]quinolin-1-ylmethyl)-piperidin-4-ylamino]-methyl}-4H-pyrido[3,2-b][1,4]oxazin-3-one]
13 |  | ≤ 0.031 | COc1ccc2ncc3c(c2n1)C(CN1CC[C@H](NCc2ccc4c(n2)NC(=O)CS4)[C@H](CO)C1)CO3 (relative stereo) [Example 36, 6-{(3R*,4S*)-[3-hydroxymethyl-1-((1RS)-8-methoxy-1,2-dihydro-3-oxa-5,9-diaza-cyclopenta[a]naphthalen-1-ylmethyl)-piperidin-4-ylamino]-methyl}-4H-pyrido[3,2-b][1,4]thiazin-3-one]
14 |  | ≤ 0.031 | COc1ccc2ncc3c(c2n1)C(CN1CC[C@H](NCc2ccc4c(n2)NC(=O)CO4)[C@H](CO)C1)CO3 (relative stereo) [Example 37, 6-{(3R*,4S*)-[3-hydroxymethyl-1-((1RS)-8-methoxy-1,2-dihydro-3-oxa-5,9-diaza-cyclopenta[a]naphthalen-1-ylmethyl)-piperidin-4-ylamino]-methyl}-4H-pyrido[3,2-b][1,4]oxazin-3-one]
15 |  | 0.063 (≈ 0.127 µM) | COc1ccc2ncc3c(c2n1)C(CN1CC[C@H](NCc2cc4c(nn2)OCCO4)[C@H](CO)C1)CO3 (relative stereo) [Example 38, (3R*,4S*)-[4-[(6,7-dihydro-[1,4]dioxino[2,3-c]pyridazin-3-ylmethyl)-amino]-1-((1RS)-8-methoxy-1,2-dihydro-3-oxa-5,9-diaza-cyclopenta[a]naphthalen-1-ylmethyl)-piperidin-3-yl]-methanol]
16 |  | ≤ 0.031 | COc1ccc2ncc3c(c2n1)[C@@H](CN1CCC(NCc2cc4c(cn2)OCCO4)C(CO)C1)CO3 (stereo partly drawn) [Example 40, [4-[(2,3-dihydro-[1,4]dioxino[2,3-c]pyridin-7-ylmethyl)-amino]-1-((S)-8-methoxy-1,2-dihydro-3-oxa-5,9-diaza-cyclopenta[a]naphthalen-1-ylmethyl)-piperidin-3-yl]-methanol]

Source: patent US8012961B2, “Tricyclic antibiotics” (Actelion Pharmaceutical Ltd., priority 2008, dated 2011)
